Source: US7820624B2, “Peptide ligands” (ICH Productions Limited, priority 2003, dated 2010)

Key:
[1] = tested on: primary mouse dendritic cells; assay: Adenoviral transduction of mouse dendritic cells; type: cell-based; conditions: bone marrow derived DCs
Experimental: Mouse dendritic cells were prepared from whole bone marrow flushed from the marrow cavities of the femur and tibia of 5-7 week old A/J mice and cultured in Hepes buffered RPMI+Glutamax (InVitrogen, Paisley, U. K.) supplemented with 10% FCS, penicillin/streptomycin and 20 ng/ml recombinant GM-CSF. Cytokines were added to the same concentration on day 3 and the dendritic cells isolated from the floating cell fraction by MACs CD11c microbeads (Miltenyi Biotec, Bisley, U. K.) on day 6.
(§1) Day 6 dendritic cells (see Example 1(v) above), or mouse bone marrow derived dendritic cells or mouse Sca1+ve stem cells, see (i) and (ii) above, were plated at 5×10^4 cells per well in a 48 well plate in 500 μl complete medium and allowed to settle for 3 hours at 37° C. Transductions were carried out in complete media, with virus being added at 100,000 viral particles/cell for 24 hours. Cells were harvested by scraping, spun down at 650 g (2000 rpm) for 5 min, resuspended in 300 μl PBS, and kept on ice before analysis. Viral transduction as determined by percentage of GFP positive cells was measured by FACS analysis. […] Cells were then washed twice in PBS, trypsinised, triplicate wells pooled, spun down at 350×g for 5 min and resuspended in 300 μl PBS before analysis by flow cytometry where cell viability was to be measured, 10 μl 7AAD was added just prior to analysis.

HepG2 cells = assay: Adenoviral transduction of HepG2 cells; type: cell-based, human; conditions: 10,000 particles per cell in OptiMEM; listed as peptide A
Experimental: (§2) Day 6 dendritic cells (see Example 1(v) above), or mouse bone marrow derived dendritic cells or mouse Sca1+ve stem cells, see (i) and (ii) above, were plated at 5×10^4 cells per well in a 48 well plate in 500 μl complete medium and allowed to settle for 3 hours at 37° C. Transductions were carried out in complete media, with virus being added at 100,000 viral particles/cell for 24 hours. Cells were harvested by scraping, spun down at 650 g (2000 rpm) for 5 min, resuspended in 300 μl PBS, and kept on ice before analysis. Viral transduction as determined by percentage of GFP positive cells was measured by FACS analysis. To measure percentage viability, 10 μl of 7-amino-actinomycin D (7AAD; Sigma, Poole, Dorset) was added immediately prior to analysis. Viral transduction of macrophages was carried out at 10,000 particles/cell in medium containing 2.5% FCS. […] Cells were then washed twice in PBS, trypsinised, triplicate wells pooled, spun down at 350×g for 5 min and resuspended in 300 μl PBS before analysis by flow cytometry where cell viability was to be measured, 10 μl 7AAD was added just prior to analysis.
(§3) For transduction of these other cell types, cells were seeded overnight at 5×10^4 cells per well in 24 well plates in the appropriate media. […] Where cell viability was to be measured, 10 μl 7-amino-actinomycin D (7AAD; Sigma, Poole, Dorset) was added just prior to analysis. […]

Neuro-2A cells = assay: Adenoviral transduction of Neuro-2A cells; type: cell-based, mouse; conditions: 10,000 particles per cell in OptiMEM
Experimental: as §2, §3

[2] = tested on: mouse Sca1-positive stem cells; assay: Adenoviral transduction of mouse Sca1+ve stem cells; type: cell-based
Experimental: Mouse bone marrow cells were isolated as above and Sca1+ve cells were isolated using MACs Sca1 microbeads (Miltenyi Biotec, Bisley, U.K.). These cells were plated at 7×10^4 cells/500 μl in RPMI with Glutamax-1 containing 30% FCS and penicillin/streptomycin and the following cytokines murine SCF (50 ng/ml; Preprotech, London, UK), IL-6 (20 ng/ml; Preprotech, London, UK) and Flt3-L (10 ng/ml) (R&D Systems, Oxford, U. K.).
as §1

1HAEo- cells = assay: Adenoviral transduction of 1HAEo- cells; type: cell-based, human; conditions: 10,000 particles per cell in OptiMEM; listed as peptide A
Experimental: as §2, §3

[3] = tested on: human monocyte-derived primary macrophages; assay: Adenoviral transduction of primary macrophages; type: cell-based; conditions: 10,000 viral particles/cell in 2.5% serum
Experimental: Day 6 dendritic cells (see Example 1(v) above), or mouse bone marrow derived dendritic cells or mouse Sca1+ve stem cells, see (i) and (ii) above, were plated at 5×10^4 cells per well in a 48 well plate in 500 μl complete medium and allowed to settle for 3 hours at 37° C. Transductions were carried out in complete media, with virus being added at 100,000 viral particles/cell for 24 hours. Cells were harvested by scraping, spun down at 650 g (2000 rpm) for 5 min, resuspended in 300 μl PBS, and kept on ice before analysis. Viral transduction as determined by percentage of GFP positive cells was measured by FACS analysis. To measure percentage viability, 10 μl of 7-amino-actinomycin D (7AAD; Sigma, Poole, Dorset) was added immediately prior to analysis. Viral transduction of macrophages was carried out at 10,000 particles/cell in medium containing 2.5% FCS. For other cell types, cells were seeded overnight at 5×10^4 cells per well in 24-well plates in the appropriate media. Adenovirus was added in OptiMEM at 10,000 viral particles/cell, 1 ml per well in triplicate and incubated for 24 h at 37° C. Cells were then washed twice in PBS, trypsinised, triplicate wells pooled, spun down at 350×g for 5 min and resuspended in 300 μl PBS before analysis by flow cytometry where cell viability was to be measured, 10 μl 7AAD was added just prior to analysis.
10 mls of peripheral blood were diluted 1:1 with HBSS then layered on Lymphoprep (Nycomed), spun at 750 g for 30 min and purified […] were isolated from the interface. Excess Lymphoprep was removed by spinning cells down at 250 g for 10 min and any platelets present were removed by washing in HBSS twice, spinning the cells at 1200 rpm for 10 min each time. Monocytes were then isolated using MACs CD14 microbeads as described in the manufacturer's protocol. The mononuclear cells were plated into a […] flask in 10% FCS, RPMI for 1-2 hours (1 flask per 10 ml blood) before removing the supernatant and adding fresh 10% FCS, RPMI+10 ng/ml MCSF (macrophage colony stimulating factor). Half the medium was replaced with fresh 10% FCS, RPMI+MCSF (10 ng/ml) after 48 hours and the cells were used at day 6, harvesting by scraping the cells from the well.
Viral transduction was carried out at 10,000 particles/cell in medium containing 2.5% FCS. Viral transduction as determined by percentage of GFP positive cells was measured by FACS analysis. Cells were pooled from three separate transduction experiments for the calculation of results.

HMEC-1 cells = assay: Adenoviral transduction of HMEC-1 cells; type: cell-based, human; conditions: 10,000 particles per cell in OptiMEM; listed as peptide A
Experimental: as §2, §3

[4] = tested on: day 4 immature dendritic cells; assay: Phenotyping of LID-transfected dendritic cells (HLA-DR, CD86); type: cell-based, human; conditions: LID with lipofectin, peptide:DNA 7:1
Experimental: Immature day 4 dendritic cells were transfected with LID complex with peptide A at a charge ratio 7:1 to the DNA (plasmid pEGFP-N1), with lipofectin added at a weight ratio of 0.75 to the DNA for 4 hours in RPMI before incubating in complete medium with cytokines for 24 hours. As a control, dendritic cells were incubated in complete medium for 24 hours (immature Dendritic cells) Cells were then harvested by scraping and stained for the presence of maturation markers as follows: a minimum of 5×10^4 cells in a volume of less than 2 ml medium were added to the recommended amount of antibody and incubated for 20 min on ice. 2 ml of ice-cold PBS was added before centrifugation at 300×g for 5 min at 4° C. The supernatant was flicked off and the pellet resuspended in 300 μl ice cold 1% paraformaldehyde-PBS. Cells from each sample were stained with antibodies to HLA-DR, and CD86 and isotype matched control antibodies. Cells were analysed by flow cytometry using a Epics XL (Beckman Coulter, High Wycombe, UK.) and the EXPO32 analysis software (Beckman Coulter).

| Substance | Transduction efficiency [1] [%] | Transduction, % cells transduced (HepG2 cells) [%] | Transduction, % GFP-positive cells (Neuro-2A cells) [%] | Transduction efficiency [2] [%] | Transduction, % cells transduced (1HAEo- cells) [%] | Transduction, % cells transduced ([3]; listed as A) [%] | Transduction, % cells transduced ([3]; listed as peptide A) [%] | Transduction, % cells transduced (HMEC-1 cells) [%] | HLA-DR and CD86 on transfected cells [4] |
| --- | --- | --- | --- | --- | --- | --- | --- | --- | --- |
| SHVKLNS (Synthetic peptide binding to dendritic cells) [listing 1 of 2 here] | 71.7 | 88.5 | 63.5 | 5.4 | 82.9 | 67.6 | 67.6 | 95.7 |  |
| SHVKLNS (Synthetic peptide binding to dendritic cells) [listing 2 of 2 here] |  |  |  |  |  |  |  |  | upregulated CD86 and HLA-DR |
